Reference: patent publication US8350042B2, “Antiviral compounds for the treatment of HCV infection” (The Regents of the University of California, priority 2008, dated 2013)

Tested on: BM4-5 FEO replicon (genotype 1b HCV)
Experiment: HCV replicon assay
Conditions: cells stably expressing BM4-5 FEO replicon, 48 hours incubation
Experimental: HCV replicon assays were used to measure compound activity in cells. The impact of compounds on HCV replicon replication was assessed, using a method that was previously described (ref.: Wyles, D. L., Kaihara, K. A., Vaida, F. & Schooley, R. T. Synergy of small molecular inhibitors of hepatitis C virus replication directed at multiple viral targets. J Virol 81, 3005-8 (2007).) in cells stably expressing the BM4-5 FEO replicon in 96-well plates (10,000 cells/well). […] For testing the effect of compounds on the HCV replicon cells were incubated with compound for 48 hours and the results expressed as the mean (±SEM) of the relative light units for each condition. A sigmoidal dose response curve was then fitted to the data using Prism4.0 (GraphPad Software).

For `CC(=O)c1ccc(C(=O)N[C@@H](CCCCN)C(=O)N2C[C@H](N)C[C@H](N)C2)cc1` [Formula III], the “Inhibition of HCV in a subgenomic replicon” value was “inhibition of HCV”.
